Reference: US7358255B2, “Therapeutic agent for keratoconjunctival disorder” (Santen Pharmaceutical Co., Ltd., priority 2003, dated 2008)

Legend:
[1] = hydrochloride compared with free form; cited from earlier work
[2] = hydrochloride compared with free form; cited from earlier work; remark: listed apart in the source
[3] = test system: corneal damage in dry eye model (exorbital lacrimal gland removed); assay: Healing effect test for corneal damage (dry eye model, fluorescein staining score); assay type: in vivo, male SD rats
Protocol: Healing Effect Test for Corneal Damage Using male SD rats, a dry eye model was produced according to the method of Fujihara et al. (Invest. Ophthalmol. Vis. Sci 42 (1): 96-100 (2001)). After producing the dry eye model, cure rate of a corneal damage was determined according to the method of Miyata et al. (Japanese Review of Clinical Ophthalmology, 48 (2): 183-188 (1994)). A male SD rat was systemically anesthetized by an interperitoneal administration of Nembutal in an amount of 35 mg/kg. Subsequently, exorbital lacrimal gland was removed, and corneal damage was induced over two months. Next, a 0.01% solution of the present compound dissolved in a physiological saline solution was instilled into one eye, while the physiological saline solution (control) was instilled into the other eye, respectively, six times per day for 7 days. On day 7 after initiating the instillation, impaired part of the cornea was stained with fluorescein. Score of upper, middle and lower parts of the cornea were assessed according to the following criteria on the extent of staining by fluorescein, respectively. […] Similar test was also conducted on normal eyes as described above to determine the mean value of total scores on each part described above. 0: No punctate staining 1: Scattered staining (punctate, separated staining) 2: Moderate staining (a part of punctate staining being adjacent) 3: Heavy staining (punctate, barely separated staining) Improvement ratio of the 0.01% eye drop administration group of the present compound is shown in Table 1 calculated on the basis of the mean value of total scores of the aforementioned respective parts in the group (control) administered with a physiological saline solution eye drop as a standard value (improvement ratio: 0%), according to the following calculating formula. Mean value of the scores was obtained by averaging 8 examples in each case. [formula]

| SMILES | Oral absorptivity [1] | Solubility in comparison with the free form [2] | Improvement ratio (%) ([3]; 0.01% eye drop, six times per day for 7 days, calculated from mean total scores with saline control as 0%) | Mean value of total scores ([3]; fluorescein staining scores (0-3) of upper, middle and lower cornea summed, 0.01% solution in physiological saline instilled six times per day for 7 days, day 7, mean of 8, normal eye 2.9, control 6.1) | Improvement of the corneal damage (in words) ([3]; rat dry eye model, 0.01% eye drop) |
| --- | --- | --- | --- | --- | --- |
| COc1ccc2nc(COc3ccc(CC4SC(=O)NC4=O)cc3)n(C)c2c1 (centres unmarked) [5-[4-(6-methoxy-1-methyl-1H-benzimidazol-2-ylmethoxy)benzyl]thiazolidine-2,4-dione] | excellent oral absorptivity | remarkable elevation of solubility |  |  |  |
| COc1ccc2nc(COc3ccc(CC4SC(=O)NC4=O)cc3)n(C)c2c1 (centres unmarked) [Present compound, 5-[4-(6-methoxy-1-methyl-1H-benzimidazol-2-ylmethoxy)benzyl]thiazolidine-2,4-dione] |  |  | 53 | 4.4 | markedly improves the corneal damage |
